Values quoted from earlier work, collected in patent US8481574B2, “Compounds as cannabinoid receptor ligands” (priority 2006, dated 2013).

How the values were obtained:
animal models of pain = settings: animal models of acute thermal pain, persistent pain, inflammatory pain and neuropathic pain
[1] = at fully efficacious doses
rodent models of pain = settings: rodent models of neuropathic, incisional, and both chronic and acute inflammatory pain
rat = rat formalin model of persistent pain
microglia = settings: in vitro
[2] = tested on: CB1 receptor knockout mice
[3] = tested on: apolipoprotein E knockout mice; settings: low doses
mice = settings: model for post-menopausal osteoporosis

For `CN1CCCCC1Cn1cc(C(=O)c2cc([N+](=O)[O-])ccc2I)c2ccccc21` (stereo not shown) [AM-1241], the analgesic efficacy (animal models of pain) is listed as “robust analgesic efficacy” and the “CB1 receptor-mediated CNS side effects” value [1] is listed as “devoid of typical CB1 receptor-mediated CNS side effects”.
In the case of `COc1ccc2c(c1)c(CCN1CCOCC1)c(C)n2C(=O)c1cccc(Cl)c1Cl` [GW405833], the “efficacy in pain models” value (rodent models of pain) is listed as “efficacious” and the “CB1 receptor-mediated CNS side effects” value [1] is listed as “devoid of typical CB1 receptor-mediated CNS side effects”.
For `CCCCCCC(C)(C)c1cc(OC)c([C@@H]2C=C(CO)[C@@H]3C[C@H]2C3(C)C)c(OC)c1` [HU-308], the antinociceptive response (rat) is given as “elicits an antinociceptive response”.
In the case of `CCCC(C)(C)c1ccc2c(c1)OC(C)(C)[C@@H]1CC=C(C)C[C@@H]21` [JWH-133], the “effect on β-amyloid-induced microglial activation and neurotoxicity” value (microglia) is listed as “abrogated β-amyloid-induced microglial activation and neurotoxicity”.
For (−)-Δ^9-Tetrahydrocannabinol [Δ^9-THC], the analgesic efficacy [2] is given as “retains some analgesic efficacy” and the “effect on progression of atherosclerotic lesions” value [3] is given as “slowed the progression of atherosclerotic lesions”.
For SR144528, the “effect on osteoclast activity” value (osteoclast) is listed as “inhibit osteoclast activity” and the “effect on ovariectomy-induced bone loss” value (mice) is listed as “reverse ovariectomy-induced bone loss”.
